The results in this text go back to ChEMBL document CHEMBL5500383, “Recent advances and future directions on small molecule VEGFR inhibitors in oncological conditions” (Eur J Med Chem, 2024).

Data set [1] addresses T1, Vascular endothelial growth factor receptor 2 (Homo sapiens, UniProt P35968). Description: Inhibition of VEGFR2 (unknown origin) using Poly-(Glu,Tyr 4:1) peptide as substrate incubated for 1 hr by ELISA method. On the technique in general: In an ELISA, binding on a coated surface is turned into a signal by an enzyme label.
Data set [2] relates to HepG2. In words: Cytotoxicity against human HepG2 cells assessed as reduction in cell growth incubated for 48 hrs by MTT assay. The conditions noted are these: HepG2, 48 h. In kind it is functional, cell-based. (In general: Tetrazolium assays rely on reduction of a dye to a coloured formazan, in cell work by metabolically active cells.)
Data set [3] relates to HCT-116. Description: Cytotoxicity against human HCT-116 cells assessed as reduction in cell growth incubated for 48 hrs by MTT assay. Particulars: HCT-116, 48 h. It counts as functional, cell-based.
Data set [4] deals with MCF7. Description: Cytotoxicity against human MCF7 cells assessed as reduction in cell viability incubated for 48 hrs by MTT assay. Particulars: MCF7, 48 h. It counts as functional, cell-based.
For data set [5], the target named is T1, Vascular endothelial growth factor receptor 2. Description: Inhibition of VEGFR2 (unknown origin).
Data set [6] concerns the target Hepatocyte growth factor receptor (Homo sapiens, UniProt P08581). In words: Inhibition of c-Met (unknown origin).
The next data set deals with MHCC97H. Description: Antiproliferative activity against human MHCC97H cells assessed as reduction in cell viability incubated for 48 hrs by CCK-8 assay. It counts as functional, cell-based.
A short description of data set [7]: Cytotoxicity against human HUVEC cells assessed as reduction in cell viability by CCK-8 assay. In kind it is toxicity, cell-based.
Data set [8] relates to HepG2. Description: Anticancer activity against human HepG2 cells assessed as reduction in cell growth incubated for 24 hrs by MTT assay. In kind it is functional, cell-based. Particulars: HepG2, 24 h.
Data set [9] can be described thus: Acute toxicity in ip dosed Swiss albino mouse assessed as lethal dose. Particulars: in vivo, read-out: ALD50. It counts as organism-based.
In data set [10] the test system is PC-3. Description: Antiproliferative activity against human PC-3 cells assessed as reduction in cell growth. In kind it is functional, cell-based.
In data set [11] the test system is PC-3. In words: Cytotoxicity against human PC-3 cells assessed as reduction in cell growth. It counts as toxicity, cell-based.
A short description of data set [12]: Cytotoxicity against human WI-38 cells assessed as reduction in cell growth. In kind it is toxicity, cell-based.
A further data set relates to HL-60. In words: Cytotoxicity against human HL-60 cells assessed as reduction in cell growth. It counts as functional, cell-based.
In data set [13] the target is T1, Vascular endothelial growth factor receptor 2. Description: Inhibition of human recombinant VEGFR2.
Data set [14] relates to MCF7. In words: Cytotoxicity against human MCF7 cells assessed as reduction in cell growth incubated for 48 hrs by MTT assay. It counts as functional, cell-based. Particulars: MCF7, 48 h.
For data set [15], the system named is MCF7. In words: Antiproliferative activity against human MCF7 cells assessed as reduction in cell viability. In kind it is functional, cell-based.
Data set [16] deals with T1, Vascular endothelial growth factor receptor 2. Description: Inhibition of VEGFR2 (unknown origin) incubated for 1 hr in presence of ATP by ELISA method.
The test system of a further data set is SF-539. In words: Antiproliferative activity against human SF-539 cells assessed as inhibition of cell growth at 10 uM after 48 hrs by sulforhodamine B assay relative to control. In kind it is functional. Further details: scale not given: the % may be the effect or the level left. In general terms: In SRB staining, fixed cells bind dye roughly in proportion to their protein.

The test system of data set [17] is HepG2. In words: Cytotoxicity against human HepG2 cells assessed as reduction in cell viability. It counts as functional, cell-based.
Data set [18] concerns HCT-116. In words: Cytotoxicity against human HCT-116 cells assessed as reduction in cell viability. In kind it is functional, cell-based.
Data set [19] in a line: Cytotoxicity against African green monkey Vero cells assessed as reduction in cell viability incubated for 72 hrs by crystal violet staining based analysis. In kind it is toxicity, Chlorocebus sabaeus.
The subject of data set [20] is HepG2. Description: Antiproliferative activity against human HepG2 cells assessed as cell growth inhibition incubated for 24 hrs by MTT assay. In kind it is functional, cell-based. Particulars: HepG2, 24 h.
Data set [21] concerns PC-3. In words: Antiproliferative activity against human PC-3 cells assessed as cell growth inhibition incubated for 24 hrs by MTT assay. Particulars: PC-3, 24 h. It counts as functional, cell-based.
Data set [22] has as its system HepG2. In words: Antiproliferative activity against human HepG2 cells assessed as reduction in cell growth. It counts as functional, cell-based.
For a further data set, the system named is Caco-2. Description: Antiproliferative activity against human Caco-2 cells assessed as reduction in cell growth. In kind it is functional, cell-based.
Data set [23] concerns MCF7. In words: Antiproliferative activity against human MCF7 cells assessed as inhibition of cell growth. It counts as functional, cell-based.
The test system of data set [24] is PC-3. Description: Antiproliferative activity against human PC-3 cells assessed as inhibition of cell growth. In kind it is functional, cell-based.
Data set [25] concerns the target Serine/threonine-protein kinase pim-1 (Homo sapiens, UniProt P11309). In words: Inhibition of PIM-1 (unknown origin).
Another data set relates to PC-9. Description: Growth inhibition of human PC-9 cells. In kind it is functional.
The test system of the next data set is HCC827. Description: Growth inhibition of human HCC827 cells. It counts as functional.
The target of data set [26] is T1, Vascular endothelial growth factor receptor 2. Description: Inhibition of human VEGFR2 by discoverX kinome scan assay.
Data set [27] relates to HepG2. Description: Antiproliferative activity against human HepG2 cells assessed as reduction in cell growth by MTT assay. In kind it is functional, cell-based.
For data set [28], the system named is HCT-116. In words: Antiproliferative activity against human HCT-116 cells assessed as reduction in cell growth by MTT assay. It counts as functional, cell-based.
The test system of data set [29] is MCF7. In words: Antiproliferative activity against human MCF7 cells assessed as reduction in cell growth by MTT assay. In kind it is functional, cell-based.
The test system of data set [30] is HCT-116. In words: Cytotoxicity against human HCT-116 cells assessed as reduction in cell viability by SRB assay. In kind it is functional, cell-based.
Data set [31] relates to HepG2. In words: Cytotoxicity against human HepG2 cells assessed as reduction in cell viability by SRB assay. It counts as functional, cell-based.
The test system of data set [32] is MCF7. Description: Cytotoxicity against human MCF7 cells assessed as reduction in cell viability by SRB assay. In kind it is functional, cell-based.

By IC50 is commonly meant the concentration that gives 50% inhibition. A word on the GI50: it is the concentration at which growth is held to half of that of the control.

T1 sequence (P35968 whole entry): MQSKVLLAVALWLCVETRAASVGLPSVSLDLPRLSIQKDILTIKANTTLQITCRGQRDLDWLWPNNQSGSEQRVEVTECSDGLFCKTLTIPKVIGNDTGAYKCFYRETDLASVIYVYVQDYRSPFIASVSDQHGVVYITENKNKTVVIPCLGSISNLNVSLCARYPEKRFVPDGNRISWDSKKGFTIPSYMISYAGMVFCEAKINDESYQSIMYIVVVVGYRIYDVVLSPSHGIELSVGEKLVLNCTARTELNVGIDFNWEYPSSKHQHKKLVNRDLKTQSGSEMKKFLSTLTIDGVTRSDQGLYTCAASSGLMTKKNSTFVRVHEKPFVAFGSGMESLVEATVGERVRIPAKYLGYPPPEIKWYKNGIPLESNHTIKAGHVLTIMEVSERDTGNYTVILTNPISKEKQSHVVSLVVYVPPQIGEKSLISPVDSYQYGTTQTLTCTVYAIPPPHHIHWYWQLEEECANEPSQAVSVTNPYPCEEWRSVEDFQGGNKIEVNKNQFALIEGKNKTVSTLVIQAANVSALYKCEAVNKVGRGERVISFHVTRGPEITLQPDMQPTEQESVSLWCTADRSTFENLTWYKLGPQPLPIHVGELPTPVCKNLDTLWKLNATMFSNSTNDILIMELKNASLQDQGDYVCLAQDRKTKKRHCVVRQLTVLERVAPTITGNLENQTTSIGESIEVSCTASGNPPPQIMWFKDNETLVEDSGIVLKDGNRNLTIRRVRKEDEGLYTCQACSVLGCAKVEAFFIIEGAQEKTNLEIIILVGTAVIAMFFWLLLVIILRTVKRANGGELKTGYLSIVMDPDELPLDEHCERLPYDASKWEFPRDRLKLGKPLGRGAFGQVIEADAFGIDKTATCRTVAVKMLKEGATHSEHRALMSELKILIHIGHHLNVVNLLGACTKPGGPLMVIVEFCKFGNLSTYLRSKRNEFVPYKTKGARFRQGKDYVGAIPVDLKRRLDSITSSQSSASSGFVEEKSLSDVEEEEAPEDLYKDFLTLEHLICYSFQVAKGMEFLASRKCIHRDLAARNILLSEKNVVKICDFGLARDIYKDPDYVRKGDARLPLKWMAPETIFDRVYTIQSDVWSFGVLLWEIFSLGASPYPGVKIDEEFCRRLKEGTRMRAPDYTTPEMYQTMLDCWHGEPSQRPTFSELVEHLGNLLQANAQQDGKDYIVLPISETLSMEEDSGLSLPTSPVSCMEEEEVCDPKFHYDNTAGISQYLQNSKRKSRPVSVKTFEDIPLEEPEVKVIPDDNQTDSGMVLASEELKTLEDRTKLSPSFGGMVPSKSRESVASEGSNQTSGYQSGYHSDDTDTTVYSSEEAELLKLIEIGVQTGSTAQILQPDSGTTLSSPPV
Hepatocyte growth factor receptor, sequence (P08581 whole entry): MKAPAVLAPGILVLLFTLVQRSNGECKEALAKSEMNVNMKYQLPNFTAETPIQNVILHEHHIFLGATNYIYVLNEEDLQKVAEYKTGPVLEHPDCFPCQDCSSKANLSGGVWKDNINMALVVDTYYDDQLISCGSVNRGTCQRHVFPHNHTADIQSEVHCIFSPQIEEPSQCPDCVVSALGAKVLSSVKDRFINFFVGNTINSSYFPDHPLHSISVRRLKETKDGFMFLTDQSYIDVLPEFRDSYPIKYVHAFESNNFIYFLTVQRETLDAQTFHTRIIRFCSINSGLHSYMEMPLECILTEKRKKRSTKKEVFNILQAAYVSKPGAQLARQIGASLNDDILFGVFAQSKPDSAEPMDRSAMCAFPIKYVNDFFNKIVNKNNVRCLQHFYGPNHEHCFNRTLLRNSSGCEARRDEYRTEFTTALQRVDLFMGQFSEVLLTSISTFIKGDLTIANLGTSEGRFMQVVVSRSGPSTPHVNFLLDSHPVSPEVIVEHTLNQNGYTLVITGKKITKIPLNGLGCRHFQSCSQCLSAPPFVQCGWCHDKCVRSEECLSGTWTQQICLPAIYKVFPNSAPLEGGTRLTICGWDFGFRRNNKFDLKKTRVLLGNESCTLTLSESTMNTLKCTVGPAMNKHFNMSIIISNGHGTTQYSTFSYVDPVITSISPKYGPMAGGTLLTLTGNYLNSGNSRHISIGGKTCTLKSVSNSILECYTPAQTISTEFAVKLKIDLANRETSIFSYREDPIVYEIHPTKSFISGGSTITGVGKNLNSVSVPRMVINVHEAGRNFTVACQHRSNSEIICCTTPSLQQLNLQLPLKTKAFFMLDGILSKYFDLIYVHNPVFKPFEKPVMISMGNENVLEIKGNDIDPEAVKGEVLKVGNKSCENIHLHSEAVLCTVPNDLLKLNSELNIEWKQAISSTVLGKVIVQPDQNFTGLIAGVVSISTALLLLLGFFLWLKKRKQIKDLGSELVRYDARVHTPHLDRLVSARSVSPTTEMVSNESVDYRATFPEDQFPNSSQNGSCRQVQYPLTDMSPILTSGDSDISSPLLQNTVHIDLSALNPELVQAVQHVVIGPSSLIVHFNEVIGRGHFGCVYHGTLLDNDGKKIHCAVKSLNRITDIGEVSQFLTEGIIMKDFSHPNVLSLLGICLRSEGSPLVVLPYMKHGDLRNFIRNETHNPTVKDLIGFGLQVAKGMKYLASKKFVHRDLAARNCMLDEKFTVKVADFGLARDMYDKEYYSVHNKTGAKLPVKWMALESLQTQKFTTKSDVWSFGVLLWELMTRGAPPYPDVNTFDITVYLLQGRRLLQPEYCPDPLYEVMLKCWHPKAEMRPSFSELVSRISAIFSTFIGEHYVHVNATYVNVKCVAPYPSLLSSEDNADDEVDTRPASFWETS
Serine/threonine-protein kinase pim-1, sequence (P11309 whole entry): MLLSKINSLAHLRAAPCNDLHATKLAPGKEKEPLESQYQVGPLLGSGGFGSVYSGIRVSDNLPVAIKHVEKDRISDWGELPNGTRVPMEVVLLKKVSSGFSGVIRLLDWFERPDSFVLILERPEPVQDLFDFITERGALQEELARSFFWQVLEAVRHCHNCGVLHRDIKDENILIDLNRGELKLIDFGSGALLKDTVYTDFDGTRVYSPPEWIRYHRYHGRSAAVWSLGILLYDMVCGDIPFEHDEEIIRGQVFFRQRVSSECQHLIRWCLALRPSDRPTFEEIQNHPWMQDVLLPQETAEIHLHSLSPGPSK

On to `Cc1cc(C)nc(NS(=O)(=O)c2ccc(/N=N/c3ccc(C4=NCC(=O)N(C)c5ccc(Cl)cc54)cc3)cc2)n1`, for which the IC50 in data set [1] is 0.1 nM; in the data set on HepG2 [2], 8980 nM; with HCT-116 [3], 7770 nM; with MCF7 [4], 6990 nM.

On to `COCCOc1cc2ncnc(Nc3ccc(NC(=O)CC(=O)Nc4ccc(F)cc4)cc3F)c2c2c1OCCO2`, for which the IC50 in data set [5] was determined as 4.8 nM; in data set [6], 5.8 nM; in the data set with MHCC97H it was 15.7 nM; in data set [7], 0.8 nM.

Take `CCOc1ccc(Nc2nnc3c4c(cccc24)NC(=S)N3Cc2ccccc2)cc1`: the IC50 in the data set with HepG2 [8] came to 220 nM. Besides, in data set [9], the LD50 is more than 800 mg/kg.

With `N#CCc1nnc(NC(=O)c2ccco2)s1`, the IC50 in the data set on PC-3 [10] was determined as 9.1 nM; in the data set on PC-3 [11], 68.7 nM.

For the molecule `C/C(=N\NC(=S)Nc1ccccc1)c1nnn(-c2ccc(F)cc2)c1C`, the IC50 in data set [5] was determined as 67 nM; in data set [12], 56600 nM; with HL-60, 1090 nM.

For `Cc1[nH]c2ncnc(Nc3ccc(NC(=O)Nc4cccc(C(F)(F)F)c4)c(F)c3)c2c1C`, the IC50 in data set [13] is 52.4 nM.

Take `CC1=NN(c2ccc([N+](=O)[O-])cc2[N+](=O)[O-])C(=O)/C1=C\c1cn(-c2ccccc2)nc1-c1cccc([N+](=O)[O-])c1`: the IC50 with MCF7 [14] was determined as 16500 nM.

Consider `COCCOCCOCCOCCOCCOC(=O)c1cc(C(=O)OCCOCCOCCOCCOCCOC)cc(-n2cc(Cn3ncc4ccccc4c3=O)nn2)c1`, for which the IC50 in the data set with MCF7 [15] stood at 8840 nM.

As for `CNC(=O)c1nc(Nc2ccc(NC(=O)Nc3cccc(OC)c3)cc2)c2ccccc2n1`, in [16], the IC50 was determined as 40300 nM. In addition, the Activity in the data set with SF-539 stood at 47.8%.

On to `Cc1nc2ccccc2n(CC(=O)Nc2ccc(C(=O)NCc3ccccc3)cc2)c1=O`, for which the half-maximal inhibitory concentration (IC50) with HepG2 [17] is 5300 nM; with HCT-116 [18], 2200 nM. Besides, in [19], the IC50 at 72 h was 11800 nM.

For the molecule `COc1ccc(-c2cc(-c3ccc(OC)c(OC)c3)c3c(N)c(C(=O)c4ccc(C)cc4)sc3n2)cc1OC`, the IC50 in data set [5] was determined as 5870 nM; in the data set with HepG2 [20], 6 nM; in the data set on PC-3 [21], 19 nM; in the data set with HepG2 [22], 6 nM; with Caco-2, 20 nM; in the data set on MCF7 [23] it was 10 nM. The IC50 came out at 10 nM in the data set on PC-3 [24] and 7950 nM in data set [25].

Take `NC(=O)CCn1cc(-c2ccc3ncnc(Nc4cc(O)c(F)cc4F)c3c2)nn1`: the GI50 in the data set on PC-9 was found to be 6000 nM; in the data set with HCC827, 1300 nM.

In the case of `O=C(N/N=C/c1ccc(Cl)cc1)c1ccc(Nc2ncnc3sc4c(c23)CCCC4)cc1`, the IC50 in [26] stood at 230 nM; in the data set on HepG2 [27], 4100 nM; in the data set with HCT-116 [28] it was 2800 nM; with MCF7 [29], 10300 nM; in the data set on HCT-116 [30], 2800 nM; in the data set with HepG2 [31] it was 4100 nM. In addition, the IC50 in the data set with MCF7 [32] turned out to be 10300 nM.
